Measurements from the METLIN SMRT retention time set (Domingo-Almenara et al. 2019).

Assay: gradient 5% acetonitrile 3 min, to 50% in 2 min, to 85% in 15 min, held 3 min, 100 µL/min
Details: column: Zorbax Extend-C18 2.1 x 50 mm; eluents: water / acetonitrile, 0.1% formic acid
Summary of the method: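 In both positive and negative ionization mode, a quadrupole time-of-flight mass spectrometer coupled to HPLC analyzed pure standards run in mixtures of ~100 molecules. The Zorbax Extend-C18 column (2.1 × 50 mm, 1.8 μm) was operated at 100 μL/min with water and acetonitrile, each containing 0.1% formic acid. The dead volume was 40 μL and the dwell volume 900 μL. Retention time came from adduct peaks that were computationally picked and individually inspected by hand.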

Compound	RP-LC retention time
CC1CCN(S(=O)(=O)c2ccc3nn(Cc4cccc(Cl)c4)c(=O)n3c2)CC1	1070 s
O=C(NCC1COc2ccccc2O1)c1cc(-c2cccnc2)nc2ccccc12 (stereo unspecified)	760 s
COC(=O)c1cc(S(=O)(=O)N2CCCC2C(=O)Nc2cccc(C#N)c2)cn1C (stereo unspecified)	826 s
COc1ccccc1-c1nc(Cn2nnc(-c3nc(-c4ccccc4C)no3)c2C)c(C)o1	1180 s
CC(C)(C)c1ccc(NS(=O)(=O)c2ccc(N)cc2)cc1	971 s
CC1CCN(CC2CCN(S(=O)(=O)c3ccc(F)c(Cl)c3)CC2)CC1	688 s
O=C(CCNc1c(-c2cccc(F)c2)nc2cnccn12)NCc1ccc(Cl)cc1	785 s
O=C(CCCn1c(=O)c2cccn2c2ccccc21)N1CCN(c2ccccn2)CC1	625 s
CC(=O)c1ccc(NC(=O)c2cccc(N3C(=O)NC4CC3(C)Oc3ccccc34)c2)cc1 (stereo unspecified)	815 s
CCN(CC)S(=O)(=O)c1ccc2nc(Cl)cnc2c1	950 s
CCOC(=O)c1c(C)n(C)c2c1cc(O)c1ccccc12	945 s
CCC(C)(C)OCC(O)CNCC(C)C (stereo unspecified)	579 s
CCOC(=O)c1[nH]c(C)c(CCC(=O)N2CCC(C(=O)NCCC3=CCCCC3)CC2)c1C	864 s
COC(=O)c1cc(S(=O)(=O)N2CCCC2C(=O)Nc2cccc(C(F)(F)F)c2)cn1C (stereo unspecified)	971 s
O=C(Nc1ccc2nc3n(c(=O)c2c1)CCCC3)Nc1ccccc1Br	735 s
Cc1cc2c(cc1NC(=O)c1cccs1)n(C)c(=O)n2C	668 s
CC(=O)OCCn1c([N+](=O)[O-])cnc1/C=[N+](\[O-])C1CCCCC1	753 s
Cc1ccc(CNS(=O)(=O)c2ccc3c(c2)C(=O)N(C)c2ncccc2O3)cc1C	986 s
COCCNC(=O)C1CCN(c2ncnc3c2oc2ccccc23)CC1	617 s
CNC(=O)c1cc(C)nc2c(C)cccc12	570 s
CCOC(=O)c1ccc(NC(=O)c2cc3c(=O)n(C)c4ccccc4n3n2)cc1	981 s
CCOCC(=O)Nc1ccc(CC(=O)NCC(F)(F)F)cc1	644 s
COC(=O)C1=CN(c2cc(OC)ccc2OC)c2cc(F)ccc2S1(=O)=O	819 s
CN(C)C(CNC(=O)c1ccccc1C(F)(F)F)c1cn(C)c2ccccc12 (stereo unspecified)	602 s

Compound	RP-LC retention time
COCCn1c(-c2ccccc2)cnc1SCC(=O)Nc1ccccc1	669 s
COc1ccccc1NC(=O)C(=O)c1ccc[nH]1	908 s
O=C(C1=CN(c2ccc(F)c(Cl)c2)c2ccccc2S1(=O)=O)N1CCCC1	817 s
Cc1ccc(Nc2nc(C(=O)NCc3ccco3)nc3ccccc23)cc1	779 s
Cn1c(=O)n(CCN2CCCCC2)c(=O)c2c1nc1n2CCCN1c1ccc(Br)cc1	678 s
COc1cc(C(=O)Nc2nc(-c3ccc4c(c3)N(C)C(=O)CO4)c(C)s2)cc(OC)c1OC	964 s
CCn1ccc(C(=O)Nc2ccccc2C#N)n1	744 s
Cc1ccc(-c2nc3ncccn3c2NCc2ccccc2)cc1C	785 s
CCOc1ccc(S(=O)(=O)N2CCCC(C(N)=O)C2)cc1C (stereo unspecified)	747 s
CCCCC(=O)Nc1ncn[nH]1	568 s
CC(C)Cc1cc(-c2nnc3sc(-c4cccc(N(C)C)c4)nn23)n[nH]1	1020 s
O=C(NOCC(O)CO)c1cc(Br)c(F)c(F)c1Nc1ccc(I)cc1F (stereo unspecified)	879 s
O=c1c2nc(-c3ccccc3)cn2ccn1-c1cccc(Cl)c1	852 s
CCCOC(=O)c1cnc2nc(C)ccc2c1NCc1ccc(OC)cc1	750 s
CCc1cccc(NC(=O)Cn2nc(N3CCC(C)CC3)c3ccccc3c2=O)c1	1220 s
O=c1[nH]c2ccc(NCc3c(F)cccc3Cl)cc2[nH]1	636 s
Cc1n[nH]c(C)c1CCC(=O)NCc1c(F)cccc1F	526 s
CCn1c(=O)c(N2CCN(C(=O)c3cccs3)CC2)nc2cccnc21	900 s
COc1ccc(-c2nc(C)cc(C)c2CNS(=O)(=O)c2cccc(F)c2)cc1	657 s
COc1ccc(CNC(=O)c2c(C)sc3ccn(C)c(=O)c23)c(OC)c1	743 s
Cc1cc(C)n(-c2ccnc(N3CCc4ccccc43)n2)n1	1340 s
COC(=O)c1c(C)[nH]c(C(=O)N2CCC(CC(=O)NCCc3c[nH]c4ccccc34)CC2)c1C	722 s
Cc1ccc(S(=O)(=O)N2CCN(C(=O)c3ccccc3Cl)CC2)cc1C	669 s

Continued, values first:

RP-LC retention time	Compound
723 s	CN(Cc1ccccc1)C(=O)c1ccc2c(c1)N(CC(=O)N1CCCC1)C(=O)CO2
1230 s	Cc1cccc(OCc2nc(C)c(C(=O)Nc3nc(-c4ccc5c(c4)OCCCO5)cs3)s2)c1
897 s	CCS(=O)(=O)N1CCC(c2noc(-c3ccccc3)n2)CC1
651 s	COc1ccc(C2(c3nc(-c4ccc5oc(C)nc5c4)no3)CC2)cc1
838 s	O=C(Cn1cnc2c(-c3ccc(Cl)cc3)csc2c1=O)N1CCCC1
613 s	O=C(c1ccc(F)cc1F)N1CCN(c2nc(CN3CCCC3)cs2)CC1
780 s	O=C(c1ccccc1)N1CCC(n2nc(-c3ccsc3)ccc2=O)CC1
899 s	O=C(Nc1ccc(Br)cc1F)c1ccc(N2CCOCC2)nn1
1040 s	COc1cccc(CCC(=O)N2CCc3cc(-c4csc(C)n4)ccc32)c1
610 s	Cc1ccc2cc(CCC(=O)N3CCN(C4CCCCC4)CC3)c(=O)[nH]c2c1
603 s	COc1ccc(N2CC(C(=O)N3CCC(C(=O)NC4CCS(=O)(=O)C4)CC3)CC2=O)cc1 (stereo unspecified)
580 s	Cc1noc(C)c1CN1CCC(NC(=O)c2ccc(F)cc2F)C1 (stereo unspecified)
946 s	O=C(c1cccs1)N1CCCC1c1nc(-c2ccccc2)no1 (stereo unspecified)
590 s	CC(=O)N1CCc2cc(N3CC(C(=O)NCC4CCCO4)CC3=O)ccc21 (stereo unspecified)
572 s	CN(C)CC(=O)N1CC(c2nc(-c3ccc(F)cc3)no2)C2(CCOCC2)C1 (stereo unspecified)
669 s	O=C1N(c2cccc(F)c2)C(c2ccccc2)C12CCNCC2 (stereo unspecified)
859 s	CCCN(CC(=O)N1CCc2sccc2C1COc1ccc(F)cc1)C(=O)NCC (stereo unspecified)
766 s	O=C([C@@H]1C[C@H](F)CN1C(=O)Nc1cc(F)cc(F)c1)N1CCCCC1
832 s	Cc1cc(C2CCCN2C(=O)c2cc(F)c(F)cc2Cl)no1 (stereo unspecified)
898 s	COc1ccccc1NC(=O)N1CCCC(C)(C(=O)NCc2ccc(C)cc2)C1 (stereo unspecified)
928 s	O=C(NC1CCCCC1)C1CCN(S(=O)(=O)c2ccc(-c3noc(C4CC4)n3)cc2)CC1
882 s	CCc1nc2cc(-c3noc(CNC(=O)Cc4ccc(Cl)cc4)n3)ccc2o1

RP-LC retention time	Compound
616 s	CCOc1ccccc1CN1CCc2nc(Nc3ccc(F)cc3)ncc2C1
786 s	CC(=O)N1CCC(C(=O)NCc2ccc(-c3nc(-c4ccc(F)cc4)no3)s2)CC1
1130 s	C=CCn1c(=O)c2ccccc2n(Cc2nc(-c3ccc(Cl)cc3)no2)c1=O
848 s	Cc1cccc(-c2noc(-c3ccc(N4CCN(Cc5ccc6c(c5)OCO6)CC4)nc3)n2)c1
884 s	COc1ccc(C)cc1NC(=O)N1CCC2(CC1)NC(=O)c1ccc(Cl)cc1N2C
586 s	O=C(c1ccc(N2CCOCC2)nn1)N1CCN(c2ncccn2)CC1
861 s	CN(CC1CCOCC1)S(=O)(=O)c1ccccc1C(F)(F)F
778 s	O=C(Nc1cccc(F)c1)C1CCc2nc(N3CCOCC3)ncc2C1 (stereo unspecified)
772 s	COC(=O)[C@H](Cc1ccc(C#Cc2ccccc2)cc1)NC(=O)C[C@H]1CCCN(C(=N)N)C1
799 s	Cc1ccc2ncn(C3CCN(C(=O)Nc4ccc(C)c(C)c4)CC3)c(=O)c2c1
679 s	O=C(Nc1cccc(-c2nnc3n2CCCC3)c1)c1ccc2c(c1)OCO2
1010 s	COc1ccccc1CC(=O)N1CCCn2nc(-c3ccc(Cl)cc3)cc2C1
706 s	Nc1cc(C2CCN(C(=O)Nc3ccccc3Br)CC2)no1
898 s	COc1ccccc1NC(=O)N1CCC(n2c(C(F)(F)F)nc3cccnc32)CC1
889 s	CCCOc1ccc(CNC(=O)C2CCCN(c3ncnc4c3oc3ccccc34)C2)cc1 (stereo unspecified)
645 s	CCc1nc2cc(-c3noc(-c4n[nH]c5ccccc45)n3)ccc2o1
634 s	Cc1ncoc1C(=O)N1CCC(N2C(=O)C(OCC3CC3)C23CCOCC3)CC1 (stereo unspecified)
650 s	CNC(=O)C1CCCN(c2nc3ncn(CC(=O)Nc4ccc(F)cc4Cl)c(=O)c3s2)C1 (stereo unspecified)
657 s	COc1ccc(CNC(=O)C2CCCN(c3nnc4ccc(Cl)cn34)C2)cc1 (stereo unspecified)
671 s	O=C(Cn1c(-c2cccs2)cc2cc(F)ccc21)NCCCN1CCOCC1
540 s	O=C(NCC1CCCO1)C(=O)NCC1(O)CCOCC1 (stereo unspecified)
817 s	CC1=C(c2ccc(F)cc2)S(=O)(=O)N=C1N1CCCN(C(=O)c2ccccc2F)CC1
